Reference: PMC9043238, “Evaluation of Potential DnaK Modulating Proline-Rich Antimicrobial Peptides Identified by Computational Screening” (Frontiers in Chemistry, 2022)
“Also recorded” adds a separate entry of the source.

Key:
DnaK [1] = conditions: peptide 300 µM; 0.3 µM DnaK; 20 mM TRIS, 150 mM KCl, 5 mM MgCl2, 1 mM ATP, pH 7.5; 1 h at 37°C; Malachite Green, A620; result in words (Figure 1)
Experimental: Peptides were assessed for their capacity to inhibit the ATPase activity of DnaK by a colorimetric assay. Peptide at 300 µM concentration were assayed in 100 µl format where each reaction contained 0.3 µM of DnaK in DnaK assay buffer (20 mM TRIS, 150 mM KCl, 5 mM MgCl2, 1 mM ATP, pH 7.5). After 60 min, 20 µl samples were taken (3 x per reaction) for assessment by Malachite Green Phosphate assay kit (Sigma—MAK307). The samples were added to 80 µl of Milli-Q water in a 96 well plate, before adding 20 µl of staining solution, and incubated at room temperature for 30 min before measuring A620 on a plate reader ([Zahn et al., 2013]). A negative control was included for each peptide where the same assay conditions are used in the absence of DnaK. The relative activity of DnaK in the presence of each of the putative DnaK binding peptides was assessed using the following equation: DnaKacitivity %= (OD620 sample−OD620 negative control)/(OD620 positive control−OD620 negative control) × 100
We selected four potential PrAMPs from the list of newly identified PrAMPs for evaluation. […] Each was chemically synthesized, purified, and exchanged into HCl salt prior to investigation of antimicrobial properties (Supplementary Information, Supplementary Figure S1). The ability of the potential PrAMPs to modulate the activity of DnaK was assessed at 300 µM in vitro through a colorimetric assay with a known binder of DnaK, oncocin, as a positive control peptide (Figure 1).
Each was incubated with DnaK for 1 h at 37°C and the free phosphate generated was detected with a Malachite Green-based stain. Activities are reported in % activity relative to DnaK positive and DnaK negative samples with constraints at 0% activity. All peptides were assayed at 300 µM. One-way ANOVA followed by Dunnett’s multiple comparisons test was performed to compare the control (DnaK) to each of the peptides, p < 0.05 (*) and p < 0.001 (**) are indicated.

[2] = test system: Escherichia coli ATCC 25922 and E. coli BAA 3051; test: Antibacterial MIC assay, E. coli; assay type: cell-based; conditions: MHB, serial dilution up to 128 µM, 6 h growth, OD read-out, MIC = concentration at which growth surpassed 10%; result in words
Experimental: (§1) For the antimicrobial assays, the strains used were as follows: Staphylococcus aureus ATCC 29213, Escherichia coli ATCC 25922 and E. coli BAA 3051.
(§2) Peptides were assessed for their MIC against various bacterial strains. Peptides were serially diluted at two x final concentration across a 96 well plate with the final well containing no peptide and control lanes of no antibacterial agent, and lanes of no bacteria or antibacterial agent. All dilutions were in sterile MHB. Each bacterial strain was grown overnight before inoculation of a fresh culture in the morning of assay, the culture was allowed to grow until OD600 = ∼1.0 before dilution to achieve 2 × 10^6 CFU/ml based of the equations 2e+7e^(2.9218∗OD600) for E. coli and 2e+7e^(2.5537∗OD600). Bacteria were added 1:1 to wells containing the serially diluted peptide(s) and were allowed to grow for 6 h, in regards to E. coli, or 24 h, in regards to S. aureus, before measuring OD620 on a plate reader. Bacterial growth per well was determined using the following equation: Bacterial growth %= (OD600 sample−OD600 negative control)/(OD600 positive control−OD600 negative control)×100
(§3) The MIC breakpoint was determined using GraphPad PRISM observing for the concentration at which growth surpassed 10%.
FIGURE 2 Minimum inhibitory concentration of potential PrAMPs. Each of the potential PrAMPs were assayed for MIC against E. coli ATCC 25922 (A), E. coli BACC 3051 (B), and S. aureus 29213 (C), up to 128 µM in MHB media.

[3] = test system: Staphylococcus aureus ATCC 29213; test: Antibacterial MIC assay, S. aureus; assay type: cell-based; conditions: MHB, up to 128 µM, 24 h growth, OD read-out; result in words
Experimental: as §1, §2, §3
FIGURE 2 Minimum inhibitory concentration of potential PrAMPs. […]

E. coli ATCC 25922 = test: MIC of peptide combinations (synergy); assay type: cell-based, Escherichia coli; conditions: equimolar combination with oncocin or P9, Figure 3
Experimental: as §2, §3
One potential reason is that these peptides are unable to access the cytoplasm of the cell. Consequently, the synergistic capacity of PP30, attacin-C, and antibacterial napin with oncocin or P9 was examined (Figure 3).
(A) MIC assessment of oncocin with/without antibacterial napin/PP30/attacin-C. (B) MIC assessment of P9 with/without antibacterial napin/PP30/attacin-C. Each peptide is present in equimolar concentration with the individual concentration shown in the X axis.

Bacillus subtilis = conditions: Gram-positive bacterium; ref Ngai and Ng, 2004; cited from earlier work
Experimental: (§4) It is interesting to note that the peptides tested which inhibit DnaK are in fact not antimicrobial at concentrations of 128 µM or less. This may be because the peptides act in vivo as part of a complex multi-peptide cocktail with synergistic effects.

E. coli = conditions: Gram-negative bacterium; ref Ngai and Ng, 2004; cited from earlier work
Experimental: as §4

DnaK [4] = conditions: ref Krizsan et al., 2014; cited from earlier work
From the text: Recently, we assessed a new set of criteria for PrAMPs and scanned the DRAMP database (http://dramp.cpu-bioinfor.org/) to detect novel PrAMPs based on similarity to known DnaK inhibitors ([Welch et al., 2020]). […] Here, we undertook screening of these putative new ...

bacterial membrane = conditions: ref Shen et al., 2010; cited from earlier work
From the text: This dual mode of action of PP30, membrane lysis and DnaK […], is novel and unreported for other native PrAMPs.

PAQPFRFPKHPQGPQTRPPI [Antibacterial napin, predicted PrAMP from the DRAMP database, chemically synthesized 20-residue peptide]
Effect on DnaK activity (ATP hydrolysis), % activity relative to DnaK positive and negative samples (DnaK [1]): inhibit DnaK activity | Antimicrobial activity (MIC assessment) against E. coli [2]: inactive; also recorded: lack of direct antimicrobial activity | Antimicrobial activity (MIC assessment) against S. aureus [3]: inactive | Synergy in combination treatment (MIC) (E. coli ATCC 25922): no synergistic effects | Activity against Bacillus subtilis (Bacillus subtilis): active | Activity against E. coli (E. coli): inactive

QRPYTQPLIYYPPPPTPPRIYRA [Attacin-C, predicted PrAMP from the DRAMP database, chemically synthesized 23-residue peptide]
Effect on DnaK activity (ATP hydrolysis), % activity relative to DnaK positive and negative samples (DnaK [1]): inhibit DnaK activity | Antimicrobial activity (MIC assessment) against E. coli [2]: lack of direct antimicrobial activity | Synergy in combination treatment (MIC) (E. coli ATCC 25922): no synergistic effects

RFIPPILRPPVRPPFRPPFRPPFRPPPIIRFFGG [P9, predicted PrAMP from the DRAMP database, chemically synthesized 34-residue peptide]
Effect on DnaK activity (ATP hydrolysis), % activity relative to DnaK positive and negative samples (DnaK [1]): increases the ATP hydrolysis of DnaK | Antimicrobial activity (MIC assessment) against E. coli [2]: potent antimicrobial activity

VDKPPYLPRPRPPRRIYNR [Oncocin]
DnaK binding (DnaK [4]): DnaK binder

YVPPVQKPHPNGPKFPTFP [PP30, predicted PrAMP from the DRAMP database, chemically synthesized 19-residue peptide]
Effect on DnaK activity (ATP hydrolysis), % activity relative to DnaK positive and negative samples (DnaK [1]): inhibit DnaK activity | Antimicrobial activity (MIC assessment) against E. coli [2]: has not however resulted in observable MICs; also recorded: lack of direct antimicrobial activity | Synergy in combination treatment (MIC) (E. coli ATCC 25922): no synergistic effects | Membrane-lytic action (bacterial membrane): membrane-lytic
